From ChEMBL document CHEMBL1149928, “Stabilization of a prostaglandin tertiary allylic alcohol system by fluorine: synthesis, acid stability studies and pharmacology of a 16-fluoromethyl analog of SC-46275” (1992)

Columns and labels:
Canis familiaris = assay: Compound was evaluated for the gastric antisecretory activity in food stimulated Pavlov pouch dogs by intrapouch administration; format: functional; settings: Canis lupus familiaris, Stomach
Rattus norvegicus = assay: Compound was evaluated for the diarrheal effects in adult male rats by intragastric administration; format: functional; settings: po

SMILES: COC(=O)CC/C=C\CC[C@H]1C(=O)C[C@@H](O)[C@@H]1/C=C/C[C@@](C)(O)/C=C/C1=CCCC1
- ED50 (Canis familiaris): 0.01 µg/kg
- ED50 (Rattus norvegicus): > 3160 µg/kg

SMILES: COC(=O)CC/C=C\CC[C@H]1C(=O)C[C@@H](O)[C@@H]1/C=C/C[C@@](O)(/C=C/C1=CCCC1)CF
- ED50 (Canis familiaris): 0.05 µg/kg
- ED50 (Rattus norvegicus): > 3160 µg/kg
